Values joined by “and” are separate entries in the source; they are usually repeats but may differ in a detail not shown here. Equal values may be shown once.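 Test compounds were applied to cells in 96-well plates for 48 hours at 5 doses. GI50: concentration for 50% inhibition of growth. TGI marks complete inhibition of growth.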
Key:
Assay in all cases: DTP human tumour cell line panel, 48 h
SNB-78 CNS = tested on: SNB-78 CNS
RXF-631 renal = tested on: RXF-631 renal
DLD-1 colon = tested on: DLD-1 colon
XF 498 CNS = tested on: XF 498 CNS
LXFL 529 NSCLC = tested on: LXFL 529 NSCLC
MDA-MB-435 = tested on: MDA-MB-435
BT-549 breast = tested on: BT-549 breast
HOP-18 NSCLC = tested on: HOP-18 NSCLC
MDA-N = tested on: MDA-N

CCC[CH2][Sn]1([CH2]CCC)[O]C(c2ccccn2)S(=O)(=O)[O]1 (stereo not drawn)
GI50 (SNB-78 CNS): 1600 nM | TGI (SNB-78 CNS): 5.86 µM | GI50 (RXF-631 renal): 1300 nM | TGI (RXF-631 renal): 2.64 µM | GI50 (DLD-1 colon): 3.31 µM | TGI (DLD-1 colon): 12.7 µM | GI50 (XF 498 CNS): 2080 nM | TGI (XF 498 CNS): 3.55 µM | GI50 (LXFL 529 NSCLC): 1.54 µM | TGI (LXFL 529 NSCLC): 2.92 µM

O=C1C(=O)c2cc([N+](=O)[O-])ccc2-c2ccccc21
GI50 (MDA-MB-435): 402 nM | TGI (MDA-MB-435): 1.53 µM | GI50 (BT-549 breast): 1830 nM | TGI (BT-549 breast): 3.22 µM

CNC(=O)c1ccc(Nc2ncc(C(F)(F)F)c(NCc3nccnc3N(C)S(C)(=O)=O)n2)cc1
GI50 (MDA-MB-435): 3550 nM and 3050 nM and 2670 nM | TGI (MDA-MB-435): > 10 µM and 13.6 µM and 15.2 µM | GI50 (BT-549 breast): 2980 nM and 2060 nM and 2140 nM | TGI (BT-549 breast): > 10 µM and 7.41 µM and 9.73 µM

OCCN1CCN(CCO)Cc2ccccc2OCCOc2ccccc2C1
TGI (SNB-78 CNS): > 100 µM | TGI (RXF-631 renal): > 100 µM | TGI (DLD-1 colon): > 100 µM | TGI (LXFL 529 NSCLC): > 100 µM

COc1ccc(C(=O)/C=C/c2cc3ccccc3[nH]c2=O)cc1
GI50 (MDA-MB-435): 21200 nM | TGI (MDA-MB-435): > 55.8 µM | GI50 (BT-549 breast): 20200 nM | TGI (BT-549 breast): > 42.9 µM

CC1=CC(=O)C(C)(C2=NC(C)(C)CO2)c2ccccc21 (stereo not drawn)
TGI (RXF-631 renal): > 100 µM | TGI (HOP-18 NSCLC): > 100 µM | TGI (DLD-1 colon): > 100 µM | TGI (LXFL 529 NSCLC): > 100 µM

CCN1C(C)=NC2C(=O)c3ccccc3C(=O)C21 (stereo not drawn)
TGI (RXF-631 renal): > 100 µM | TGI (XF 498 CNS): > 100 µM | TGI (LXFL 529 NSCLC): > 100 µM

CC[C@H](C)c1occ2c(O)c(C(=O)O)c(=O)cc-2c1C
TGI (MDA-N): > 100 µM | TGI (MDA-MB-435): 58 µM | TGI (BT-549 breast): 64.6 µM

CCCCCCN(CCCCCC)C(=N)c1ccnc2ccccc12
GI50 (MDA-MB-435): 3210 nM | TGI (MDA-MB-435): 14.7 µM | GI50 (BT-549 breast): 13900 nM | TGI (BT-549 breast): 27.3 µM

COc1ccc(C(=S)c2cc(OC)c(OC)c(OC)c2)cc1OC(=O)CCl
GI50 (MDA-MB-435): < 10 nM | TGI (MDA-MB-435): < 0.0108 µM | GI50 (BT-549 breast): < 17.5 nM | TGI (BT-549 breast): 0.922 µM

Cc1cc(NC(=O)c2ccc(NS(=O)(=O)CCO)cc2N2CCC3(CC2)CC3)nc(N2CCC(F)(F)CC2)n1
GI50 (MDA-MB-435): 903 nM | TGI (MDA-MB-435): 18.5 µM | GI50 (BT-549 breast): 486 nM | TGI (BT-549 breast): 17.9 µM

CC1(C)CC23C(=O)N(c4ccccc4)C(=Nc4ccccc4)NC2=CC(C#N)=C(C#N)C3O1 (stereo not drawn)
TGI (SNB-78 CNS): > 100 µM | TGI (RXF-631 renal): > 100 µM | TGI (DLD-1 colon): > 100 µM | TGI (XF 498 CNS): > 100 µM | TGI (LXFL 529 NSCLC): > 100 µM

CS(=O)(=O)c1ccc(N/N=C/c2c(-c3ccc(S(C)(=O)=O)cc3)[nH]c3ccc(F)cc23)cc1
GI50 (MDA-MB-435): 3120 nM | TGI (MDA-MB-435): > 50 µM | GI50 (BT-549 breast): 1440 nM | TGI (BT-549 breast): > 50 µM

Cc1cc(Cl)ccc1Nc1sc(C(=O)c2cc3cc(Cl)ccc3o2)c(N)c1C#N
TGI (MDA-N): > 100 µM | TGI (MDA-MB-435): > 100 µM | TGI (BT-549 breast): > 100 µM

[N-]=[N+]=NC1(N=[N+]=[N-])C(=O)NN=C(c2ccccc2)C1=O (stereo not drawn)
TGI (MDA-N): 61.3 µM | TGI (MDA-MB-435): 42.6 µM | TGI (BT-549 breast): > 100 µM

CC(C#N)c1cn(S(=O)(=O)c2ccccc2)c2ccccc12 (stereo not drawn)
TGI (DLD-1 colon): > 100 µM | TGI (XF 498 CNS): > 100 µM | TGI (LXFL 529 NSCLC): > 100 µM

C/C(=N\O)c1sc(-n2nc(-c3ccccc3)cc2-c2ccccc2)nc1C
TGI (SNB-78 CNS): > 100 µM | TGI (RXF-631 renal): > 31.6 µM | TGI (DLD-1 colon): 20.1 µM | TGI (LXFL 529 NSCLC): 16.3 µM

CC(=O)[CH-]C(=O)c1ccccc1.CC(=O)[CH-]C(=O)c1ccccc1.O=C([O-])C[O-].O=C([O-])C[O-].[Ti+4]
GI50 (LXFL 529 NSCLC): 33.5 µM | TGI (LXFL 529 NSCLC): > 100 µM

C#C[C@@]1(O)[C@@H](CO)O[C@@H](n2cc(Cl)c3c(N)ncnc32)[C@@H]1O
GI50 (MDA-MB-435): 166 nM | TGI (MDA-MB-435): 2.4 µM

CCN(Cc1ccc(F)cc1)c1ccc(CO)c(Cl)c1
GI50 (MDA-MB-435): 19900 nM | TGI (MDA-MB-435): 73.2 µM | GI50 (BT-549 breast): 9270 nM | TGI (BT-549 breast): 29.7 µM

O=S(=O)(/C=C/C=C/S(=O)(=O)c1ccccc1)c1ccccc1
GI50 (MDA-N): 1400 nM | TGI (MDA-N): 2.88 µM and 7.28 µM | GI50 (MDA-MB-435): 1040 nM | TGI (MDA-MB-435): 4.21 µM and 4.19 µM | TGI (BT-549 breast): 3.15 µM

COc1ccc(NC(=O)C(=O)C(CC2C(=O)NC(=S)NC2=O)C(=O)c2ccc3ccccc3c2)c([N+](=O)[O-])c1 (stereo not drawn)
TGI (MDA-N): > 100 µM | TGI (MDA-MB-435): > 100 µM | TGI (BT-549 breast): > 100 µM

Nc1ccccc1NC(=O)c1ccc(CSc2nc(N3CCOCC3)c3cccn3n2)cc1
GI50 (MDA-MB-435): 270 nM | TGI (MDA-MB-435): 1 µM | GI50 (BT-549 breast): 1140 nM | TGI (BT-549 breast): 4.59 µM

N=c1ccn2c(n1)OC1C(OP(=O)(O)O)C(CO)OC12 (stereo not drawn)
TGI (MDA-N): > 100 µM | TGI (MDA-MB-435): > 100 µM | TGI (BT-549 breast): > 100 µM

CCC1CCc2nc3sc(C(=O)Nc4ccccc4F)c(N)c3cc2C1 (stereo not drawn)
GI50 (MDA-MB-435): 133 nM | TGI (MDA-MB-435): 0.562 µM | GI50 (BT-549 breast): > 100000 nM | TGI (BT-549 breast): > 100 µM

CCOC(=O)[C@H](CSSc1ncnc2cc[nH]c12)NC(=O)[C@@H](C)c1ccc2cc(OC)ccc2c1
GI50 (MDA-MB-435): 355 nM | TGI (MDA-MB-435): > 100 µM | GI50 (BT-549 breast): 916 nM | TGI (BT-549 breast): > 100 µM

C[C@H]1CCC/C=C/[C@@H]2C[C@H](O)C[C@H]2[C@H](O)[C@H](S(=O)c2ccc(O)cc2)CC(=O)O1 (stereo partly drawn)
GI50 (MDA-N): 40.9 nM | GI50 (MDA-MB-435): 41.7 nM | GI50 (BT-549 breast): 47.2 nM | TGI (BT-549 breast): > 100 µM

CC(=O)O[C@H](C[C@H](C(C)C)N(C)C(=O)[C@@H](NC(=O)[C@H]1CCCCN1C)C(C)C)c1nc(C(=O)N[C@@H](Cc2ccccc2)C[C@H](C)C(=O)O)c(C)s1
GI50 (BT-549 breast): < 2.5 nM | TGI (BT-549 breast): 0.0627 µM

O=C1C=C(Nc2ccccc2)c2ncccc2C1=O
GI50 (MDA-MB-435): 178 nM | TGI (MDA-MB-435): 0.323 µM | GI50 (BT-549 breast): 1280 nM | TGI (BT-549 breast): 2.64 µM

Cc1cc(C)c(C(=O)O)c(N)c1O
TGI (DLD-1 colon): > 100 µM | TGI (LXFL 529 NSCLC): > 100 µM

CCCCCCCCN(CCCCCCCC)C(=N)c1ccnc2ccccc12
GI50 (MDA-MB-435): 302 nM | TGI (MDA-MB-435): 1.07 µM

Nn1c(CCCl)nc2c(Br)cc(Br)cc2c1=O
TGI (SNB-78 CNS): > 100 µM | TGI (HOP-18 NSCLC): > 100 µM | TGI (DLD-1 colon): > 79.4 µM | TGI (XF 498 CNS): 56.1 µM | TGI (LXFL 529 NSCLC): 69.3 µM

CCCCCCCC1c2cc3[nH]c(cc4nc(cc5[nH]c(cc(n2)[C@@]1(C)CC(=O)N(C)C)c(C)c5CCC(=O)O)C(CCC(=O)O)=C4C)cc3C (stereo partly drawn)
TGI (MDA-N): > 100 µM | TGI (MDA-MB-435): 92.5 µM | TGI (BT-549 breast): 28.6 µM
